Data taken from paper PMC7053198 (Theranostics, 2020).

System: A375Pβ6 cells
Conditions: A375Pβ6, αvβ6 positive; 72 h treatment, MTT assay; ±SD, n=3

Question: With `COc1cc2c(cc1OCCCCCOc1cc3c(cc1OC)C(=O)N1C=C(C)C[C@H]1C=N3)N=C[C@@H]1CC(C)=CN1C2=O` [SG3199, reference compound] as the compound, how does the IC50 read?
Answer: 0.11 ± 0.08 nM
